Reference: patent US20120059024A1 (priority 2009, published 2012)
Where “and” joins values, the source holds several entries; their conditions need not be identical. Equal entries are not always repeated. Where two headings read alike, the source gives them in different places.

Key:
[1] = in vivo, cited from earlier work
young adult Wistar rats = conditions: intraperitoneal
human volunteers = assay: Human drug liking study; conditions: any dose of oxycodone alone vs same dose combined with 100 mg flupirtine, oral capsule
[2] = Mean Equivalent Daily Dose (MEDD) conversion table for opioids; assay type: in vivo

| Structure (SMILES) | MEDD-Factor ([1]; po) | MEDD-Factor ([1]; sc) | MEDD-Factor ([1]; iv) | other results |
| --- | --- | --- | --- | --- |
| COc1cccc(C2(O)CCCCC2CN(C)C)c1 (stereo not drawn) [Tramadol] | 0.05 | 0.1 | – | – |
| COc1ccc2c3c1O[C@H]1C(=O)CC[C@H]4[C@@H](C2)N(C)CC[C@]314 [Hydrocodone] | 0.4 | – | – | – |
| CC(=O)Oc1ccc2c3c1O[C@H]1[C@@H](OC(C)=O)C=C[C@H]4[C@@H](C2)N(C)CC[C@@]341 [Diamorphine] | 0.65 | 1.3 | – | – |
| CCC(=O)C(CC(C)N(C)C)(c1ccccc1)c1ccccc1 (stereo not drawn) [Methadone] | 4 | 8 | 8 | – |
| CN1CC[C@]23CCCC[C@H]2[C@H]1Cc1ccc(O)cc13 [Levo-dromoran] | – | 5 | – | MEDD-Factor [1]: 0.25 |
| CCOC(=O)Nc1ccc(NCc2ccc(F)cc2)nc1N [flupirtine] | – | – | – | sedation (young adult Wistar rats; 10 mg/kg flupirtine, criteria of Goodchild et al. 2008): non-sedating; sedation (young adult Wistar rats; 20 mg/kg flupirtine, criteria of Goodchild et al. 2008): sedating |
| CCOC(=O)C1(c2ccccc2)CCN(C)CC1 [Meperidine] | 0.05 | 0.1 | 0.1 | – |
| COc1ccc2c3c1O[C@H]1C(=O)CC[C@@]4(O)[C@@H](C2)N(C)CC[C@]314 [Oxycodone] | 0.63 | 1.5 | – | subject preference (drug liking) (human volunteers): preferred to, or no less preferred to; dose equivalent to a 100 mg dose of morphine administered orally ([2]; orally administered): 63 mg |
| COc1ccc2c3c1O[C@H]1[C@@H](O)C=C[C@H]4[C@@H](C2)N(C)CC[C@@]341 [Codeine] | 0.05 | 0.1 | – | MEDD-Factor [1]: 0.1 and 0.05 |
| CN1CC[C@]23c4c5ccc(O)c4O[C@H]2[C@@H](O)C=C[C@H]3[C@H]1C5 [Morphine] | 0.4 | 1 | 1 | sedation (young adult Wistar rats; 1.6 mg/kg morphine): not sedating; dose equivalent to a 100 mg dose of morphine administered orally ([2]; administered intravenously): 40 mg |
